Results taken from PMC7216583 (Parasites & Vectors, 2020).
Structures can show the parent of a compound that is named as a salt.

Experiments:
δ-opioid receptor = target: δ-opioid receptor; set-up: method as in library vendor description; settings: agonist; ref library vendor description; cited from earlier work
[1] = system: Toxoplasma gondii RH-2F tachyzoites; assay: microbe, parasite or virus in culture; settings: 72 h, read-out: Parasite inhibition (%) mean, preliminary screen, mean
CYP17 = system: CYP17; set-up: method as in library vendor description; settings: ref library vendor description; cited from earlier work
VEGFR2 = system: VEGFR2; set-up: method as in library vendor description; settings: ref library vendor description; cited from earlier work
FGFR1 = system: FGFR1; set-up: method as in library vendor description; settings: ref library vendor description; cited from earlier work
VEGFR1 = system: VEGFR1; set-up: method as in library vendor description; settings: ref library vendor description; cited from earlier work
Flk1 = system: Flk1; set-up: method as in library vendor description; settings: ref library vendor description; cited from earlier work
FKBP12 = system: FKBP12; set-up: method as in library vendor description; settings: ref library vendor description; read-out: IC50 mTOR inhibitor of FKBP12; cited from earlier work
G551D-CFTR = system: G551D-CFTR; set-up: method as in library vendor description; settings: potentiator; ref library vendor description; cited from earlier work
F508del-CFTR = system: F508del-CFTR; set-up: method as in library vendor description; settings: potentiator; ref library vendor description; cited from earlier work
CDK4/cyclin D1 = system: CDK4/cyclin D1; set-up: method as in library vendor description; settings: ref library vendor description; cited from earlier work
CDK6/cyclin D2 = system: CDK6/cyclin D2; set-up: method as in library vendor description; settings: ref library vendor description; cited from earlier work
in vitro = settings: human
DHFR = settings: read-out: Ki DHFR; ref library vendor description; cited from earlier work
SIRT1 = system: SIRT1; set-up: method as in library vendor description; settings: ref library vendor description; cited from earlier work
Bcl-xL = target: Bcl-xL; set-up: method as in library vendor description; settings: recombinant; ref library vendor description; cited from earlier work
Bcl-2 = target: Bcl-2; set-up: method as in library vendor description; settings: ref library vendor description; cited from earlier work
Mcl-1 = target: Mcl-1; set-up: method as in library vendor description; settings: recombinant; ref library vendor description; cited from earlier work
[2] = system: human foreskin fibroblasts (HFFs); settings: human, 72 h
Flt1 = system: Flt1; set-up: method as in library vendor description; settings: ref library vendor description; cited from earlier work
Flt4 = system: Flt4; set-up: method as in library vendor description; settings: ref library vendor description; cited from earlier work
c-Kit = system: c-Kit; set-up: method as in library vendor description; settings: ref library vendor description; cited from earlier work
Ret = system: Ret; set-up: method as in library vendor description; settings: ref library vendor description; cited from earlier work
AXL = system: AXL; set-up: method as in library vendor description; settings: ref library vendor description; cited from earlier work
survivin = system: survivin; set-up: method as in library vendor description; settings: ref library vendor description; cited from earlier work
[3] = system: Toxoplasma gondii RH-2F tachyzoites; settings: preliminary screen, mean
wild type p110α = system: wild type p110α; set-up: method as in library vendor description; settings: ref library vendor description; cited from earlier work

In the case of `CCN(CC)C(=O)c1ccc(C2=CC3(CCNCC3)Oc3cccc(O)c32)cc1` [ADL5859 HCl], the Ki (δ-opioid receptor) is given as 0.8 nM and the inhibition of growth at 5 µM [1] is given as 1.1%.
In the case of `C[C@]12CC[C@H](O)CC1=CC[C@@H]1[C@H]2CC[C@]2(C)C(c3cccnc3)=CC[C@@H]12` [Abiraterone (CB-7598)], the IC50 (CYP17) is listed as 2 nM and the inhibition of growth at 5 µM [1] is listed as 11.2%.
For `Cc1cc2c(F)c(Oc3ncnn4cc(OC[C@@H](C)OC(=O)[C@H](C)N)c(C)c34)ccc2[nH]1` [Brivanib alaninate (BMS-582664)], the IC50 (VEGFR2) is listed as 25 nM, the IC50 (FGFR1) is listed as 148 nM and the IC50 (VEGFR1) is listed as 380 nM. The IC50 (Flk1) was 89 nM and the inhibition of growth at 5 µM [1] was 7.1%.
For `CO[C@H]1C[C@@H]2CC[C@@H](C)[C@@](O)(O2)C(=O)C(=O)N2CCCC[C@H]2C(=O)O[C@H]([C@@H](C)C[C@@H]2CC[C@@H](OCCO)[C@H](OC)C2)CC(=O)[C@H](C)/C=C(\C)[C@H](O)[C@@H](OC)C(=O)[C@H](C)C[C@H](C)/C=C/C=C/C=C/1C` [Everolimus (RAD001)], the IC50 (FKBP12) is listed as 1.6 to 2.4 nM and the inhibition of growth at 5 µM [1] is listed as 14.5%.
In the case of `CC(C)(C)c1cc(C(C)(C)C)c(NC(=O)c2c[nH]c3ccccc3c2=O)cc1O` [Ivacaftor (VX-770)], the EC50 (G551D-CFTR) is listed as 100 nM, the EC50 (F508del-CFTR) is listed as 25 nM and the inhibition of growth at 5 µM [1] is listed as 0.6%.
For `CC(=O)c1c(C)c2cnc(Nc3ccc(N4CCNCC4)cn3)nc2n(C2CCCC2)c1=O` [PD 0332991 (Palbociclib) HCl], the IC50 (CDK4/cyclin D1) is given as […], the IC50 (CDK6/cyclin D2) is given as 16 nM and the inhibition of growth at 5 µM [1] is given as 0.1%.
For `Nc1nc(=O)c2c(CCc3ccc(C(=O)N[C@H](CCC(=O)O)C(=O)O)cc3)c[nH]c2[nH]1` [Pemetrexed (Alimta)], the viability (in vitro) is given as 84.6% and the Ki (DHFR) is given as 7.2 nM.
In the case of `Cl.O=C(Nc1ccccc1-c1cn2c(CN3CCNCC3)csc2n1)c1cnc2ccccc2n1` [SRT1720], the “EC1.5 SIRT1 activation” value (SIRT1) is given as “SRT1720 is a selective SIRT1 activator with EC1.5 of 0.16 μM” and the inhibition of growth at 5 µM [1] is given as 18.3%.
In the case of `CC(C)c1ccccc1Cc1cc(C(=O)Nc2ccc(S(=O)(=O)c3ccccc3C(C)(C)C)cc2)c(O)c(O)c1O` [TW-37], the Ki (Bcl-xL) is listed as 1110 nM, the Ki (Bcl-2) is listed as 290 nM and the Ki (Mcl-1) is listed as 260 nM. The inhibition of growth at 5 µM [1] was 58.9%.
For `COc1cc2nccc(Oc3ccc(NC(=O)C4(C(=O)Nc5ccc(F)cc5)CC4)cc3)c2cc1OC` [XL-184 (Cabozantinib)], the “Host viability (%) mean” value [2] is listed as 50.8%, the IC50 (Flt1) is listed as 12 nM and the IC50 (Flt4) is listed as 6 nM. For the same compound, the IC50 (c-Kit) was […], the IC50 (Ret) was […] and the IC50 (AXL) was […]. The inhibition of growth at 5 µM [1] was 82.5%.
In the case of `COCCn1c2c([n+](Cc3cnccn3)c1C)C(=O)c1ccccc1C2=O` [YM155], the IC50 (survivin) is listed as 0.54 nM and the inhibition of growth at 5 µM [1] is listed as 15.4%.
For XL147, the “Parasite inhibition (%) mean” value [3] is listed as 44.4% and the IC50 (wild type p110α) is listed as 40 nM.
